Tests used:
[1] = test system: plasma cells in implanted synovial tissue; experiment: RA-SCID mouse model, synovial tissue xenografts; format: in vivo, SCID-mice; conditions: 12 mg/kg i.v. day 8, day 14
Excerpt: SCID-mice, strain C.B.-17/lcrCrl-SCID-bg, male/female, 4-12 weeks, purchased from Charles River Laboratories Nederland (Maastricht, the Netherlands) were kept in IVC cages under standard conditions of temperature and light, and were fed laboratory chow and water ad libitum. Prior to implantation, mice (three mice in each experimental group, day 0) were anesthetized by intraperitoneal injection of ketamine (NIMATEK, EuroVet) and xylazine (Rompun, Bayer) at ratio 1:1. A small incision of the skin was made using surgical scissors. […] On day 1 of the experiment, remaining synovial tissue was analyzed in order to check for B cells in the inflamed synovial transplants. -005 (12 mg/kg) or control antibody (anti-KLH, 30 mg/kg) was injected (i.v.), in a volume of 200 μl on day 8 of the experiment. […]
Scoring of stained synovial tissue xenografts was performed in a blinded fashion by two trained persons. […] The staining intensity in the other sections was then scored on a scale of 0 to 8, relative to the reference section.
Scoring of staining intensity was analyzed by Kruskal-Wallis one-way ANOVA followed by Dunn's multiple comparison test using Graph Pad Prism version 4.01 (Graph Pad software, Inc., San Diego, CA, USA).

[2] = test system: JK6L (a multiple myeloma cell line); experiment: ADCC set up II, JK6L cells; format: cell-based; conditions: in words
Procedure: (§1) Human blood from human volunteers (university Erlangen, Erlangen, Germany) was diluted twice in RPMI 1640 and blood cells were layered on Ficoll (Lymphocyte Separation Medium […], 710 g, RT, 20 min; BioWhittaker, Cambrex Bio Science Verviers, Verviers, Belgium, cat. 17-829E, lot no. 0148 32). Peripheral blood mononuclear cells (MNCs) were collected from the interphase, washed and resuspended in RPMI 1640 culture medium supplemented with 10% FCS, 2 mM L-glutamine, 5 U/ml penicillin, 50 μg/ml streptomycin (all derived from BioWhittaker) to which 25 mM HEPES (BioWhittaker) was added.
(§2) Target B-cells (fresh plasma cell leukemia tumor cells, JK6L and AMO-1 B-cell lines, obtained from Dr. T. Valerius, University of Erlangen, Erlangen, Germany) were labeled with 20 μCi ^51Cr (Amersham Biosciences, Uppsala, Sweden) for 2 hours. After extensive washing in RPMI-10, cells were adjusted to 1×10^5 cells/ml. […] After incubation (3 hr, 37° C.), assays were stopped by centrifugation, and 51Cr release from triplicates was measured in counts per minute (cpm) in a scintillation counter. Percentage of cellular cytotoxicity was calculated using the following formula: […]
(§3) with maximal ^51Cr release determined by adding perchloric acid (3% final concentration) to target cells, and basal release was measured in the absence of sensitizing antibodies and effector cells.

[3] = test system: AMO-1 (a multiple myeloma cell line); experiment: ADCC set up II, AMO-1 cells; format: cell-based; conditions: CD38 expression is low
Procedure: as §1, §2, §3

wt human CD38 = molecular target: T1, wt human CD38 (Homo sapiens, UniProt P28907); experiment: ELISA binding to wild type HA-CD38
T1 construct: The extracellular domain of human CD38 was amplified from plasmid pCIpuroCD38; signal peptide SPHMM (N); made in house; host or cells: Freestyle 293-F (HEK-293F), transient; culture supernatant used
Procedure: Freestyle™ 293-F (a HEK-293 subclone adapted to suspension growth and chemically defined Freestyle medium, (HEK-293F)) cells were obtained from Invitrogen and transfected with pEE13.4HACD38 and with the three constructs carrying the mutations T237A, Q272R and S274F, according to the manufacturer's protocol using 293fectin (Invitrogen). Culture supernatants of transfected cells were used in ELISA for anti-CD38 binding studies.
Culture supernatants of transfected HEK293F cells were diluted, applied to the ELISA plates and incubated for 1 hr at RT. After washing, serial dilutions of HuMabs -003 and -005 were added and incubated for 1 hr at RT. Bound antibodies were detected with HRP-conjugated goat-anti-human IgG antibodies. The assay was developed with ABTS (Roche, #1112597) and the absorbance was measured at 405 nm using a spectrophotometer.

Substance: -005: human monoclonal IgG1 anti-CD38 antibody, VL region SEQ ID No:12 and VH region SEQ ID No:17
- numbers of anti-CD38-positive plasma cells in xenografts [1]: reduced
- numbers of plasma cells (anti-CD138 staining) in xenografts [1]: reduced numbers of plasma cells
- lysis of JK6L by ADCC [2]: lysis is induced
- lysis of AMO-1 by ADCC [3]: lysis is induced
- binding to wt human CD38 (wt human CD38): bind

— patent publication US20240165226A1, “COMBINATION TREATMENT OF CD38-EXPRESSING TUMORS” (GENMAB A/S, priority 2006, published 2024)
